Source: patent US20080132536A1, “PYRAZOLO [3,4-B] PYRIDINE COMPOUNDS, AND THEIR USE AS PDE4 INHIBITORS” (Glaxo Group Limited, priority 2003, published 2008)

Biological target: T1, PDE4B (human recombinant) (Homo sapiens, UniProt Q07343)
T1 construct: made in house
Assay: PDE4B inhibition, radioactive SPA and/or IMAP fluorescence polarisation (FP) assay
Format: biochemical
Settings: comparators: Examples 6, 7, 29, 26, 64, 126, 124, 170, 177
Text: Human recombinant PDE4B, in particular the 2B splice variant thereof (HSPDE4B2B), is disclosed in WO 94/20079 and also M. M. McLaughlin et al., “A low Km, rolipram-sensitive, cAMP-specific phosphodiesterase from human brain: cloning and expression of cDNA, biochemical characterisation of recombinant protein, and tissue distribution of mRNA”, J. Biol. Chem., 1993, 268, 6470-6476. For example, in Example 1 of WO 94/20079, human recombinant PDE4B is described as being expressed in the PDE-deficient yeast Saccharomyces cerevisiae strain GL62, e.g. after induction by addition of 150 uM CuSO4, and 100,000×g supernatant fractions of yeast cell lysates are described for use in the harvesting of PDE4B enzyme.
The ability of compounds to inhibit catalytic activity at PDE4B or 4D (human recombinant), PDE3 (from bovine aorta), PDE5 (human recombinant) or PDE6 (from bovine retina) can optionally be determined by Scintillation Proximity Assay (SPA) in 96-well format.
Test compounds (as a solution in DMSO, preferably about 2 microlitre (ul) volume of DMSO solution) are preincubated at ambient temperature (room temperature, e.g. 19-23° C.) in Wallac Isoplates (code 1450-514) with PDE enzyme in 50 mM Tris-HCl buffer pH 7.5, 8.3 mM MgCl2, 1.7 mM EGTA, 0.05% (w/v) bovine serum albumin for 10-30 minutes (usually 30 minutes). The enzyme concentration is adjusted so that no more than 20% hydrolysis of the substrate defined below occurs in control wells without compound, during the incubation. For the PDE3, PDE4B and PDE4D assays, [5′,8-3H]Adenosine 3′,5′-cyclic phosphate (Amersham Pharmacia Biotech, code TRK.559; or Amersham Biosciences UK Ltd, Pollards Wood, Chalfont St Giles, Buckinghamshire HP8 4SP, UK) is added to give 0.05 uCi per well and about 10 nM final concentration. For the PDE5 and PDE6 assays, [8-^3H]Guanosine 3′,5′-cyclic phosphate (Amersham Pharmacia Biotech, code TRK.392) is added to give 0.05 uCi per well and about 36 nM final concentration. Plates containing assay mixture, preferably approx. 100 ul volume of assay mixture, are mixed on an orbital shaker for 5 minutes and incubated at ambient temperature for 1 hour. Phosphodiesterase SPA beads (Amersham Pharmacia Biotech, code RPNQ 0150) are added (about 1 mg per well) to terminate the assay. Plates are sealed and shaken and allowed to stand at ambient temperature for 35 minutes to 1 hour (preferably 35 minutes) to allow the beads to settle. Bound radioactive product is measured using a WALLAC TRILUX 1450 Microbeta scintillation counter. For inhibition curves, 10 concentrations (1.5 nM-30 uM) of each compound are assayed. Curves are analysed using ActivityBase and XLfit (ID Business Solutions Limited, 2 Ocean Court, Surrey Research Park, Guildford, Surrey GU2 7QB, United Kingdom) Results are expressed as pIC50 values.
The ability of compounds to inhibit catalytic activity at PDE4B (human recombinant) or PDE4D (human recombinant) can optionally be determined by IMAP Fluorescence Polarisation (FP) assay (IMAP Explorer kit, available from Molecular Devices Corporation, Sunnydale, Calif., USA; Molecular Devices code: R8062) in 384-well format.
The IMAP FP assay is able to measure PDE activity in an homogenous, non-radioactive assay format. The FP assay uses the ability of immobilised trivalent metal cations, coated onto nanoparticles (tiny beads), to bind the phosphate group of Fl-AMP that is produced on the hydrolysis of fluorescein-labelled (Fl) cyclic adenosine mono-phosphate (Fl-cAMP) to the non-cyclic Fl-AMP form. […] Binding of Fl-AMP product to the beads (coated with the immobilised trivalent cations) slows the rotation of the bound Fl-AMP and leads to an increase in the fluorescence polarisation ratio of parallel to perpendicular light. Inhibition of the PDE reduces/inhibits this signal increase. […]

T1 sequence (Q07343 1-564 isoform Q07343-2): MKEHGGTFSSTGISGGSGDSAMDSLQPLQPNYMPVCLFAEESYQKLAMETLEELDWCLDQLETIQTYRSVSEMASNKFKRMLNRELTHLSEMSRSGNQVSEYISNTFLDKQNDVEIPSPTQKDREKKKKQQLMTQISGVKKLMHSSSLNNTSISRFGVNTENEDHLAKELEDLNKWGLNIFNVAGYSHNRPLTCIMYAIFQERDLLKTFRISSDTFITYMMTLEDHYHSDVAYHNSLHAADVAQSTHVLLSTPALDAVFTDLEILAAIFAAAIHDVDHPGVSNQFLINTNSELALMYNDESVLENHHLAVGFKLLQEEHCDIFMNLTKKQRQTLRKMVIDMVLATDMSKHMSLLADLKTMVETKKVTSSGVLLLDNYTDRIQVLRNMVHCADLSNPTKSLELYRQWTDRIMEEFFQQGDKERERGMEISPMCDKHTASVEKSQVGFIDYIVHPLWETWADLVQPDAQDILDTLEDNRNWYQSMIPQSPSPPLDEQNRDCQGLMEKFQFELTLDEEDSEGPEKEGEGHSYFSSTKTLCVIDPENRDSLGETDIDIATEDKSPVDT

| Compound | PDE4B inhibitory activity compared with the comparable Example of opposite stereochemistry at the CR4R5 (benzylic) carbon atom |
| --- | --- |
| CCn1ncc2c(NC3CCCCC3)c(C(=O)N[C@H](CO)c3ccccc3)cnc21 [Example 127, 4-(cyclohexylamino)-1-ethyl-N-[(1S)-2-hydroxy-1-phenylethyl]-1H-pyrazolo[3,4-b]pyridine-5-carboxamide] | greater PDE4B inhibitory activity |
| CCn1ncc2c(NC3CCOCC3)c(C(=O)N[C@H](C)c3ccccc3)cnc21 [Example 8, 1-ethyl-N-[(1R)-1-phenylethyl]-4-(tetrahydro-2H-pyran-4-ylamino)-1H-pyrazolo[3,4-b]pyridine-5-carboxamide] | greater PDE4B inhibitory activity |
| CCn1ncc2c(NC3CCC(=O)CC3)c(C(=O)N[C@H](C)c3ccc([N+](=O)[O-])cc3)cnc21 [Example 178, 1-ethyl-N-[(1R)-1-(4-nitrophenyl)ethyl]-4-[(4-oxocyclohexyl)amino]-1H-pyrazolo[3,4-b]pyridine-5-carboxamide] | greater PDE4B inhibitory activity |
| CCn1ncc2c(NC3CCOCC3)c(C(=O)N[C@H](C)c3ccc(OC)cc3)cnc21 [Example 63, 1-ethyl-N-{(1R)-1-[4-(methyloxy)phenyl]ethyl}-4-(tetrahydro-2H-pyran-4-ylamino)-1H-pyrazolo[3,4-b]pyridine-5-carboxamide] | greater PDE4B inhibitory activity |
| CC[C@@H](NC(=O)c1cnc2c(cnn2CC)c1NC1CCOCC1)c1ccccc1 [Example 1, 1-ethyl-N-[(1R)-1-phenylpropyl]-4-(tetrahydro-2H-pyran-4-ylamino)-1H-pyrazolo[3,4-b]pyridine-5-carboxamide] | greater PDE4B inhibitory activity |

Same assay, conditions: one reading or average of several (ca. 2-6) readings; SPA and/or FP assay; range given for a group of Examples; read-out: PDE4B pIC50 (±about 0.5) (converted)

| Compound | IC50 [nM] |
| --- | --- |
| CCC(NC(=O)c1cnc2c(cnn2CC)c1NC1CCCC(O)C1)c1ccc(Cl)cc1 [Example 282, N-[1-(4-chlorophenyl)propyl]-1-ethyl-4-{[(1S,3R)-and/or (1R,3S)-3-hydroxycyclohexyl]amino}-1H-pyrazolo[3,4-b]pyridine-5-carboxamide] | 0.1 to 2 |
| CCn1ncc2c(NC3CCOCC3)c(C(=O)N[C@H](C)c3ccccc3)cnc21 [Example 8, 1-ethyl-N-[(1R)-1-phenylethyl]-4-(tetrahydro-2H-pyran-4-ylamino)-1H-pyrazolo[3,4-b]pyridine-5-carboxamide] | 0.794 to 5.01 |
| CCn1ncc2c(N[C@H]3CC[C@@H](C(N)=O)CC3)c(C(=O)N[C@H](C)c3ccc(C)cc3)cnc21 [Example 353, 4-{[cis-4-(aminocarbonyl)cyclohexyl]amino}-1-ethyl-N-[(1R)-1-(4-methylphenyl)ethyl]-1H-pyrazolo[3,4-b]pyridine-5-carboxamide] | 0.501 to 3.16 |
| CCn1ncc2c(NC3CCOCC3)c(C(=O)NC(C)c3ccc(C)cc3)cnc21 (centres unmarked) [Example 48, 1-ethyl-N-[1-(4-methylphenyl)ethyl]-4-(tetrahydro-2H-pyran-4-ylamino)-1H-pyrazolo[3,4-b]pyridine-5-carboxamide] | 0.1 to 2 |
| CCC(NC(=O)c1cnc2c(cnn2CC)c1NC1CCC(=NO)CC1)c1ccc(C)cc1 (centres unmarked) [Example 252, 1-ethyl-4-{[4-(hydroxyimino)cyclohexyl]amino}-N-[1-(4-methylphenyl)propyl]-1H-pyrazolo[3,4-b]pyridine-5-carboxamide] | 0.1 to 2 |
| CCn1ncc2c(NC3CCOCC3)c(C(=O)N[C@@H](C)c3ccccc3)cnc21 [Example 7, 1-ethyl-N-[(1S)-1-phenylethyl]-4-(tetrahydro-2H-pyran-4-ylamino)-1H-pyrazolo[3,4-b]pyridine-5-carboxamide] | 31.6 to 70.8 |
| CCn1ncc2c(NC3CCOCC3)c(C(=O)N[C@@H](C)c3cccc4ccccc34)cnc21 [Example 38, 1-ethyl-N-[(1S)-1-(1-naphthalenyl)ethyl]-4-(tetrahydro-2H-pyran-4-ylamino)-1H-pyrazolo[3,4-b]pyridine-5-carboxamide] | 12.6 to 25.1 |
| CCn1ncc2c(NC3CCC(=O)CC3)c(C(=O)N[C@H](C)c3ccc(C)cc3)cnc21 [Example 191, 1-ethyl-N-[(1R)-1-(4-methylphenyl)ethyl]-4-[(4-oxocyclohexyl)amino]-1H-pyrazolo[3,4-b]pyridine-5-carboxamide] | 0.1 to 2 |
| CCn1ncc2c(NC3CCCC(O)C3)c(C(=O)N[C@H](C)c3ccc(C)cc3)cnc21 (single isomer, unassigned; diastereoisomer 2) [Example 306] | 0.1 to 2 |
| CCn1ncc2c(N[C@H]3CC[C@@H](C(N)=O)CC3)c(C(=O)N[C@H](C)c3ccc(Br)cc3)cnc21 [Example 355, 4-{[cis-4-(aminocarbonyl)cyclohexyl]amino}-N-[(1R)-1-(4-bromophenyl)ethyl]-1-ethyl-1H-pyrazolo[3,4-b]pyridine-5-carboxamide] | 0.501 to 3.16 |
| CCC(NC(=O)c1cnc2c(cnn2CC)c1NC1CCC(=O)CC1)c1ccc(C)cc1 (centres unmarked) [Example 221, 1-ethyl-N-[1-(4-methylphenyl)propyl]-4-[(4-oxocyclohexyl)amino]-1H-pyrazolo[3,4-b]pyridine-5-carboxamide] | 0.1 to 2 |
| CCn1ncc2c(NC3CCOCC3)c(C(=O)NC(C)c3ccc(Br)cc3)cnc21 (centres unmarked) [Example 50, N-[1-(4-bromophenyl)ethyl]-1-ethyl-4-(tetrahydro-2H-pyran-4-ylamino)-1H-pyrazolo[3,4-b]pyridine-5-carboxamide] | 0.794 to 5.01 |
| CC[C@@H](NC(=O)c1cnc2c(cnn2CC)c1N[C@H]1CC[C@H](C(N)=O)CC1)c1ccc(C)cc1C [Example 356, 4-{[trans-4-(aminocarbonyl)cyclohexyl]amino}-N-[(1R)-1-(2,4-dimethylphenyl)propyl]-1-ethyl-1H-pyrazolo[3,4-b]pyridine-5-carboxamide] | 39.8 to 158 |
| CCn1ncc2c(NC3CCOCC3)c(C(=O)N[C@H](C)c3ccc(Br)cc3)cnc21 [Example 75, N-[(1R)-1-(4-bromophenyl)ethyl]-1-ethyl-4-(tetrahydro-2H-pyran-4-ylamino)-1H-pyrazolo[3,4-b]pyridine-5-carboxamide] | 0.794 to 5.01 |
| CCn1ncc2c(NC3CCOCC3)c(C(=O)N[C@H](C)c3ccc(OC)cc3)cnc21 [Example 63, 1-ethyl-N-{(1R)-1-[4-(methyloxy)phenyl]ethyl}-4-(tetrahydro-2H-pyran-4-ylamino)-1H-pyrazolo[3,4-b]pyridine-5-carboxamide] | 0.794 to 5.01 |
| CCn1ncc2c(NC3CCOCC3)c(C(=O)N[C@@H](COC)c3ccccc3)cnc21 [Example 29, 1-ethyl-N-[(1R)-2-(methyloxy)-1-phenylethyl]-4-(tetrahydro-2H-pyran-4-ylamino)-1H-pyrazolo[3,4-b]pyridine-5-carboxamide] | 31.6 to 70.8 |
| CCn1ncc2c(N[C@H]3CC[C@H](C(N)=O)CC3)c(C(=O)N[C@H](C)c3ccc(C)cc3)cnc21 [Example 357, 4-{[trans-4-(aminocarbonyl)cyclohexyl]amino}-1-ethyl-N-[(1R)-1-(4-methylphenyl)ethyl]-1H-pyrazolo[3,4-b]pyridine-5-carboxamide] | 39.8 to 158 |
| CC[C@H](NC(=O)c1cnc2c(cnn2CC)c1NC1CCOCC1)c1ccccc1 [Example 6, 1-ethyl-N-[(1S)-1-phenylpropyl]-4-(tetrahydro-2H-pyran-4-ylamino)-1H-pyrazolo[3,4-b]pyridine-5-carboxamide] | 31.6 to 70.8 |
| CC[C@@H](NC(=O)c1cnc2c(cnn2CC)c1NC1CCOCC1)c1ccccc1 [Example 1, 1-ethyl-N-[(1R)-1-phenylpropyl]-4-(tetrahydro-2H-pyran-4-ylamino)-1H-pyrazolo[3,4-b]pyridine-5-carboxamide] | 0.794 to 5.01 |
| CCn1ncc2c(NC3CCOCC3)c(C(=O)N[C@@H](C)c3ccc(OC)cc3)cnc21 [Example 64, 1-ethyl-N-{(1S)-1-[4-(methyloxy)phenyl]ethyl}-4-(tetrahydro-2H-pyran-4-ylamino)-1H-pyrazolo[3,4-b]pyridine-5-carboxamide] | 31.6 to 70.8 |
| CCn1ncc2c(NC3CCOCC3)c(C(=O)NC(C)(C)c3ccccc3)cnc21 [Example 2, 1-ethyl-N-(1-methyl-1-phenylethyl)-4-(tetrahydro-2H-pyran-4-ylamino)-1H-pyrazolo[3,4-b]pyridine-5-carboxamide] | 12.6 to 25.1 |
